From patent publication US11667643B2, “RIP1K inhibitors” (priority 2020, dated 2023)
Where two headings read alike, the source gives them in different places.

Assays:
RIPK1 = RIPK1 (Homo sapiens (Human), UniProt Q13546); experiment: biochemical; format: biochemical
Method: In this example, compounds of the disclosure were evaluated using a biochemical assay using the ADP-Glo™ technology.
ADP-Glo™ (Promega, Madison, Wis., USA) reagents were thawed at ambient temperature. Kinase Detection Reagent was prepared by mixing kinase detection buffer with the lyophilized kinase detection substrate.
A […] stock volume of 5× Reaction Kinase Buffer was made by mixing 1000 μl of 1M MgCl2, 500 μl of 1M Tris-HCL pH7.4, 0.5 mg/ml (25 mg) of BSA, and 3475 μl of distilled H2O. A 3 ml 2× working stock volume of Reaction Kinase Buffer was made containing a final concentration of 100 μM DTT and 4 mM MnCl2.
Components of RIPK1 enzyme (Rigel Pharmaceuticals, South San Francisco, Calif., USA) were thawed on ice. Diluted RIPK1 was prepared in 1× Kinase Reaction Buffer (diluted from 2× buffer) to 31 ng/well.
1.0 ul of diluted compound was added to a 384 well plate in duplicate. […] The final reaction volume was 5.0 μl. The plate was quickly centrifuged and the reaction was incubated at 30° C. for 30 minutes. Adding 5 μl of ADP-Glo™ terminated the reaction. The plate was quickly centrifuged and the reaction was incubated at room temperature for 40 minutes. Kinase Detection Reagent was then added and incubated at room temperature for 30 minutes. The relative light unit (RLU) of kinase reaction was determined by luminescent (Luminescence 0.1 s) using a Wallac Victor2 Luminometer (PerkinElmer, Waltham, Mass., USA).

L929 cells = experiment: L929 cell necroptosis assay (TNFa + zVAD, CellTiter-Glo recovery), functional murine RIP1 assay; format: cell-based; conditions: Mus musculus, L929, 18 h, read-out: L929-CTG-recovery, L929, TNFa + zVAD (IC50), L929 cells, zVAD-fmk, TNFa 2 ng/mL, 18 hours, CellTiter-Glo
Method: (§1) In this example, U937 and L929 cells were exposed to compounds of the present disclosure and a cell necroptosis assay was conducted to evaluate compound activity in functional human RIP1 and murine RIP1 assays.
(§2) U937 and L929 cells were obtained from the American Type Culture Collection (Manassa, Va., USA). Both cells were maintained in logarithmic growth phase in complete RPMI 1640 media (Sigma, ST Louis, Mo., USA) supplemented with 10% fetal bovine serum (Sigma, ST Louis, Mo., USA) at 37° C. with 5% CO2. For necroptosis assay, L929 cells were plated for 18 h in 100 μL/well medium at 10K cells/well in Costar 96-well black clear-bottom plates (Fisher Scientific, Hampton, N.H., USA); U937 cells were plated on the day of the assay in 50 μL/well medium containing 60 uM zVAD-fmk (Lonza, Basel, Switzerland) at 50K cells/well. Medium from L929 cells were removed from the 96-well plates and replaced with 50 μL/well new medium containing 40 uM zVAD-fmk. Each compound of the present disclosure evaluated in this example was serially diluted in DMSO from 2.5 mM in 4-fold dilutions, and then diluted 1:125 in complete medium. 50 μL/well 2× of the compound was then added to the cells in the plates. The cells were pre-incubated with the compound for 1 hour at 37° C. with 5% CO2 and before addition of 10 μL/well 11×TNFa (Peprotech, Rocky Hill, N.J., USA) to give a final concentration of 2 ng/mL for TNFa. The relative amount of necroptosis cells was determined by luminescent using a Wallac Victor2 Luminometer (PerkinElmer, Waltham, Mass., USA) and a CellTiter-Glo® Luminescent Cell Viability Reagent Assay (Promega, Madison, Wis., USA) added per manufacturer instructions after 18 hours of TNFa stimulation at 37° C. with 5% CO2. This example establishes that embodiments of the compounds described herein have unexpectedly potent activity against human RIP1 and murine RIP1, which allows their assessment in in vivo mouse models of disease.

U937 cells = experiment: U937 cell necroptosis assay (TNFa + zVAD, CellTiter-Glo recovery), functional human RIP1 assay; format: cell-based; conditions: Homo sapiens, U-937, 18 h, read-out: U937 Zvad TNF CTG Recovery, U937, TNFa + zVAD (IC50), U937 cells, zVAD-fmk, TNFa 2 ng/mL, 18 hours, CellTiter-Glo
Method: as §1, §2

[1] = RIPK1 enzyme 31 ng/well, 30° C. for 30 minutes, luminescence, read-out: RIPK1 ADP-Glo Kinase (IC50)

RIPK1, sequence (Q13546 whole entry, species assumed): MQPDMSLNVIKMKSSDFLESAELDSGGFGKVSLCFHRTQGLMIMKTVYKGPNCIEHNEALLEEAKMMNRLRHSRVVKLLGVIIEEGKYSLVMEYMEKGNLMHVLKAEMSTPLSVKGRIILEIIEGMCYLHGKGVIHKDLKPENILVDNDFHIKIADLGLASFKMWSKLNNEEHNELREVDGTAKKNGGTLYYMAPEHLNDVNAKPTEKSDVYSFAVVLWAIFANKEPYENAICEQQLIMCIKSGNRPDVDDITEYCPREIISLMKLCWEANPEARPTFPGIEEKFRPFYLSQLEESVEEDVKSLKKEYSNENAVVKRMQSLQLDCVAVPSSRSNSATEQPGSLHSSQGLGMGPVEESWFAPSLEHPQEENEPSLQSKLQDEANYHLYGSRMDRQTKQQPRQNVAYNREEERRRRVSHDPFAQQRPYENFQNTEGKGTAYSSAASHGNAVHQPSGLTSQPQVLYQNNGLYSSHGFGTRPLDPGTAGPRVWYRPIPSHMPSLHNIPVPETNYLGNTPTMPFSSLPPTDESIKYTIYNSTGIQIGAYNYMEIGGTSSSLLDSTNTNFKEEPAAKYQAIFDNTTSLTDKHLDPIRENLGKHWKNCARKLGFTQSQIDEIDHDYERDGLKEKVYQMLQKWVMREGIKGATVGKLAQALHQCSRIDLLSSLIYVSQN

| SMILES | IC50 (RIPK1) | IC50 (L929 cells) | IC50 (U937 cells) | IC50 (RIPK1; [1]) |
| --- | --- | --- | --- | --- |
| O=C(NC1CSc2cccn2-n2ccnc21)c1ncn(Cc2c(Cl)cccc2Cl)n1 (racemic) [Compound I-29, (±)-1-(2,6-Dichlorobenzyl)-N-(4,5-dihydroimidazo[1,2-d]pyrrolo[2,1-b][1,3,4]thiadiazepin-4-yl)-1H-1,2,4-triazole-3-carboxamide] | 0.0098 µM | 0.195 µM | 0.0011 µM | – |
| O=C(NC1COc2ccccc2-n2cccc21)c1n[nH]c(Cc2ccccc2)n1 (racemic) [Compound I-34, (±)-5-Benzyl-N-(6,7-dihydrobenzo[b]pyrrolo[1,2-d][1,4]oxazepin-7-yl)-1H-1,2,4-triazole-3-carboxamide] | – | 10000 µM | 1.54 µM | 0.139 µM |
| Cc1cn2c(n1)C(NC(=O)c1ncn(Cc3c(Cl)cccc3Cl)n1)CCc1ccccc1-2 (racemic) [Compound I-35, (±)-1-(2,6-Dichlorobenzyl)-N-(2-methyl-5,6-dihydro-4H-benzo[f]imidazo[1,2-a]azepin-4-yl)-1H-1,2,4-triazole-3-carboxamide] | – | 10000 µM | 2.68 µM | 2.08 µM |
| O=C(NC1CCc2ccccc2-n2c1n[nH]c2=O)c1ncn(Cc2c(Cl)cccc2Cl)n1 (racemic) [Compound I-36, (±)-1-(2,6-Dichlorobenzyl)-N-(1-oxo-2,4,5,6-tetrahydro-1H-benzo[f][1,2,4]triazolo[4,3-a]azepin-4-yl)-1H-1,2,4-triazole-3-carboxamide] | – | 16.1 µM | 0.714 µM | 2.8 µM |
| O=C(NC1COc2ccccc2-n2cccc21)c1n[nH]c(Cc2ccc(F)cc2)n1 (racemic) [Compound I-37, (±)-N-(6,7-Dihydrobenzo[b]pyrrolo[1,2-d][1,4]oxazepin-7-yl)-5-(4-fluorobenzyl)-1H-1,2,4-triazole-3-carboxamide] | – | 10000 µM | 4.07 µM | 1.14 µM |
| O=C(NC1COc2ccccc2-n2cccc21)c1ncn(Cc2ccccc2F)n1 (racemic) [Compound I-38, (±)-N-(6,7-Dihydrobenzo[b]pyrrolo[1,2-d][1,4]oxazepin-7-yl)-1-(2-fluorobenzyl)-1H-1,2,4-triazole-3-carboxamide] | – | 9.79 µM | 0.0439 µM | 0.0223 µM |
| O=C(NC1CCc2ccc(CN3CCN(c4ccncc4)CC3)cc2-n2ccnc21)c1n[nH]c(Cc2ccccc2)n1 (racemic) [Compound I-39, (±)-5-Benzyl-N-(9-((4-(pyridin-4-yl)piperazin-1-yl)methyl)-5,6-dihydro-4H-benzo[f]imidazo[1,2-a]azepin-4-yl)-1H-1,2,4-triazole-3-carboxamide] | – | 50.9 µM | 1.38 µM | 1.46 µM |
| Cc1cnc2n1-c1ccccc1CCC2NC(=O)c1ncn(Cc2c(Cl)cccc2Cl)n1 (racemic) [Compound I-44, (±)-1-(2,6-Dichlorobenzyl)-N-(1-methyl-5,6-dihydro-4H-benzo[f]imidazo[1,2-a]azepin-4-yl)-1H-1,2,4-triazole-3-carboxamide] | – | 10000 µM | 1.67 µM | 0.947 µM |
| O=C(NC1CSc2cccn2-n2ccnc21)c1n[nH]c(Cc2ccccc2)n1 (racemic) [Compound I-45, (±)-5-Benzyl-N-(4,5-dihydroimidazo[1,2-d]pyrrolo[2,1-b][1,3,4]thiadiazepin-4-yl)-1H-1,2,4-triazole-3-carboxamide] | – | 10.5 µM | 0.0364 µM | 0.0312 µM |
| O=C(NC1CCc2ccc(CN3CCN(c4ccncc4)CC3)cc2-n2ccnc21)c1ncn(Cc2c(Cl)cccc2Cl)n1 (racemic) [Compound I-47, (±)-1-(2,6-Dichlorobenzyl)-N-(9-((4-(pyridin-4-yl)piperazin-1-yl)methyl)-5,6-dihydro-4H-benzo[f]imidazo[1,2-a]azepin-4-yl)-1H-1,2,4-triazole-3-carboxamide] | – | 9.5 µM | 0.0257 µM | 0.0873 µM |
| O=C(NC1CCc2ccccc2-n2c1noc2=O)c1n[nH]c(Cc2ccccc2)n1 (racemic) [Compound I-48, (±)-5-Benzyl-N-(1-oxo-5,6-dihydro-1H,4H-benzo[f][1,2,4]oxadiazolo[4,3-a]azepin-4-yl)-1H-1,2,4-triazole-3-carboxamide] | – | 10000 µM | 0.0408 µM | 0.0534 µM |
| O=C(NC1CCc2ccccc2-n2ccnc21)c1cc(Oc2ccccc2)ccn1 (racemic) [Compound I-51, (±)-N-(5,6-Dihydro-4H-benzo[f]imidazo[1,2-a]azepin-4-yl)-4-phenoxypicolinamide] | – | 17.1 µM | 0.125 µM | 0.0492 µM |
| O=C(NC1CCc2ccccc2-n2c1noc2=O)c1cc(Oc2ccccc2)ccn1 (racemic) [Compound I-52, (±)-N-(1-Oxo-5,6-dihydro-1H,4H-benzo[f][1,2,4]oxadiazolo[4,3-a]azepin-4-yl)-4-phenoxypicolinamide] | – | 20.8 µM | 0.0647 µM | 0.0325 µM |
| O=C(NC1COc2ccccc2-n2cccc21)c1cc(Oc2ccccc2)ccn1 (racemic) [Compound I-54, (±)-N-(6,7-Dihydrobenzo[b]pyrrolo[1,2-d][1,4]oxazepin-7-yl)-4-phenoxypicolinamide] | – | 10000 µM | 1.25 µM | 0.582 µM |
| CC(C)(O)C#Cc1ccc2c(c1)-n1ccnc1C(NC(=O)c1cc(Oc3ccccc3)ccn1)CC2 (racemic) [Compound I-56, (±)-N-(9-(3-Hydroxy-3-methylbut-1-yn-1-yl)-5,6-dihydro-477-benzo[f]imidazo[1,2-a]azepin-4-yl)-4-phenoxypicolinamide] | – | 5.09 µM | 0.0345 µM | 0.0561 µM |
| O=C(NC1CCc2ccccc2-n2cnnc21)c1n[nH]c(Cc2ccccc2)n1 (racemic) [Compound I-57, (±)-5-Benzyl-N-(5,6-dihydro-4H-benzo[f][1,2,4]triazolo[4,3-a]azepin-4-yl)-1H-1,2,4-triazole-3-carboxamide] | – | 10000 µM | 3.65 µM | 0.663 µM |
| O=C(NC1CCc2ccccc2-n2cnnc21)c1ncn(Cc2c(Cl)cccc2Cl)n1 (racemic) [Compound I-58, (±)-1-(2,6-Dichlorobenzyl)-N-(5,6-dihydro-4H-benzo[f][1,2,4]triazolo[4,3-a]azepin-4-yl)-1H-1,2,4-triazole-3-carboxamide] | – | 10000 µM | 0.0743 µM | 0.0573 µM |
| O=C(NC1CCc2ccccc2-n2cnnc21)c1cc(Oc2ccccc2)ccn1 (racemic) [Compound I-59, (±)-N-(5,6-Dihydro-4H-benzo[f][1,2,4]triazolo[4,3-a]azepin-4-yl)-4-phenoxypicolinamide] | – | 10000 µM | 0.829 µM | 0.118 µM |
| Cn1nc2n(c1=O)-c1ccccc1CCC2NC(=O)c1ncn(Cc2c(Cl)cccc2Cl)n1 (racemic) [Compound I-60, (±)-1-(2,6-Dichlorobenzyl)-N-(2-methyl-1-oxo-2,4,5,6-tetrahydro-1H-benzo[f][1,2,4]triazolo[4,3-a]azepin-4-yl)-1H-1,2,4-triazole-3-carboxamide] | – | 10000 µM | 35.8 µM | 1.29 µM |
| O=C(NC1CCc2ccc(N3CCC4(CCOCC4)CC3)cc2-n2ccnc21)c1ncn(Cc2c(Cl)cccc2Cl)n1 (racemic) [Compound I-61, (±)-N-(9-(3-Oxa-9-azaspiro[5.5]undecan-9-yl)-5,6-dihydro-4H-benzo[f]imidazo[1,2-a]azepin-4-yl)-1-(2,6-dichlorobenzyl)-1H-1,2,4-triazole-3-carboxamide] | – | 0.106 µM | 0.0181 µM | 0.0862 µM |
